Reference: article PMC5564600 (Oncotarget, 2017)
Read-outs that look alike come from different tables or passages of the source.

Legend:
Assay in all cases: biochemical
Type in all cases: binding
panel of 442 kinases [1] = target: T1, panel of 442 kinases (Homo sapiens, UniProt Q15746); details: kinase MYLK; for remaining activity at 1 µM: read-out: % of control at 1 µM
T1 construct: purchased Ambit Biosciences (scanMAXX KINOMEscan)

panel of 442 kinases [2] = target: T2, panel of 442 kinases (Homo sapiens, UniProt Q13546); details: kinase RIPK1; for remaining activity at 1 µM: read-out: RIPK1 (% of control at 1 µM)
T2 construct: purchased Ambit Biosciences (scanMAXX KINOMEscan)
T2 sequence (Q13546 1-671): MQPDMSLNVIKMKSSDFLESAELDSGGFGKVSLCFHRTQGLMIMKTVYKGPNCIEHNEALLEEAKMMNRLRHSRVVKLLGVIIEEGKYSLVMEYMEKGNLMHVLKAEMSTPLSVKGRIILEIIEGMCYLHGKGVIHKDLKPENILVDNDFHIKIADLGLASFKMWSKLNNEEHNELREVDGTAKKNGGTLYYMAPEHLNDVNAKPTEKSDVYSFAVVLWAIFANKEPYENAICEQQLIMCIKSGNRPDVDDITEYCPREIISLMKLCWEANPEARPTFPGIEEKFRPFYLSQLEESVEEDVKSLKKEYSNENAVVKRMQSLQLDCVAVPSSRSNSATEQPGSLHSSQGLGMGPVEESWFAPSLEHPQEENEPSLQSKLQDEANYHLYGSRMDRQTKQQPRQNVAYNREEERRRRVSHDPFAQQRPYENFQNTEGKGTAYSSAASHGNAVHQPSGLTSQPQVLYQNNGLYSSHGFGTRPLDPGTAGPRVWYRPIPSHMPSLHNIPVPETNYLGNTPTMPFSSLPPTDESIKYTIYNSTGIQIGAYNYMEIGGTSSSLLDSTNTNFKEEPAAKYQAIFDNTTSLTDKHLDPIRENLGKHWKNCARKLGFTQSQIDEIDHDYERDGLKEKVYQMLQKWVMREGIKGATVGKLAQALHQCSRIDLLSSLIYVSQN

panel of 442 kinases [3] = target: T3, panel of 442 kinases (Homo sapiens, UniProt O75460); details: ERN1; for remaining activity at 1 µM: read-out: % of control at 1 µM
T3 construct: purchased Ambit Biosciences (scanMAXX KINOMEscan)

panel of 442 kinases [4] = target: T4, panel of 442 kinases (Homo sapiens, UniProt Q9UPZ9); details: kinase ICK; for remaining activity at 1 µM: read-out: % of control at 1 µM
T4 construct: purchased Ambit Biosciences (scanMAXX KINOMEscan)
T4 sequence (Q9UPZ9 1-632): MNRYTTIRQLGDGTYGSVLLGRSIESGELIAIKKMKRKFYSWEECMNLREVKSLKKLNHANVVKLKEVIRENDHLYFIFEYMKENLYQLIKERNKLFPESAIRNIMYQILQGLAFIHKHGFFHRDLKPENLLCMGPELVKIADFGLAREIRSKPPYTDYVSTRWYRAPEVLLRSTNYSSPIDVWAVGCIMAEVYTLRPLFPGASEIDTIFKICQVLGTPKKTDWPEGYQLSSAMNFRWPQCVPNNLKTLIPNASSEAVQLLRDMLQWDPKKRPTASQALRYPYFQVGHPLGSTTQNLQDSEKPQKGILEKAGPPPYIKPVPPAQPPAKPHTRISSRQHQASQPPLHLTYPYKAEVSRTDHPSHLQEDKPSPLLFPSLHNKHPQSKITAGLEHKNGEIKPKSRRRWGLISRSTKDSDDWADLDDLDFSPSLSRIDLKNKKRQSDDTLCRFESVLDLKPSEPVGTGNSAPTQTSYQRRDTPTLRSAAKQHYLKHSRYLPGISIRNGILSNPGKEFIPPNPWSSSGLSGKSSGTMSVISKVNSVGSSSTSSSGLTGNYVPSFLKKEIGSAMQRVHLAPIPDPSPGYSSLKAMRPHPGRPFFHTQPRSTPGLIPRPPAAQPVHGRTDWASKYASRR

panel of 442 kinases [5] = target: T5, panel of 442 kinases (Homo sapiens, UniProt Q96NX5); details: CAMK1G; for remaining activity at 1 µM: read-out: % of control at 1 µM
T5 construct: purchased Ambit Biosciences (scanMAXX KINOMEscan)

panel of 442 kinases [6] = target: T6, panel of 442 kinases (Homo sapiens, UniProt Q8N4C8); details: kinase MINK; for remaining activity at 1 µM: read-out: % of control at 1 µM
T6 construct: purchased Ambit Biosciences (scanMAXX KINOMEscan)

panel of 442 kinases [7] = target: T7, panel of 442 kinases (Homo sapiens, UniProt P33981); details: kinase TTK; for remaining activity at 1 µM: read-out: TTK (% of control at 1 µM)
T7 construct: purchased Ambit Biosciences (scanMAXX KINOMEscan)
T7 sequence (P33981 1-857): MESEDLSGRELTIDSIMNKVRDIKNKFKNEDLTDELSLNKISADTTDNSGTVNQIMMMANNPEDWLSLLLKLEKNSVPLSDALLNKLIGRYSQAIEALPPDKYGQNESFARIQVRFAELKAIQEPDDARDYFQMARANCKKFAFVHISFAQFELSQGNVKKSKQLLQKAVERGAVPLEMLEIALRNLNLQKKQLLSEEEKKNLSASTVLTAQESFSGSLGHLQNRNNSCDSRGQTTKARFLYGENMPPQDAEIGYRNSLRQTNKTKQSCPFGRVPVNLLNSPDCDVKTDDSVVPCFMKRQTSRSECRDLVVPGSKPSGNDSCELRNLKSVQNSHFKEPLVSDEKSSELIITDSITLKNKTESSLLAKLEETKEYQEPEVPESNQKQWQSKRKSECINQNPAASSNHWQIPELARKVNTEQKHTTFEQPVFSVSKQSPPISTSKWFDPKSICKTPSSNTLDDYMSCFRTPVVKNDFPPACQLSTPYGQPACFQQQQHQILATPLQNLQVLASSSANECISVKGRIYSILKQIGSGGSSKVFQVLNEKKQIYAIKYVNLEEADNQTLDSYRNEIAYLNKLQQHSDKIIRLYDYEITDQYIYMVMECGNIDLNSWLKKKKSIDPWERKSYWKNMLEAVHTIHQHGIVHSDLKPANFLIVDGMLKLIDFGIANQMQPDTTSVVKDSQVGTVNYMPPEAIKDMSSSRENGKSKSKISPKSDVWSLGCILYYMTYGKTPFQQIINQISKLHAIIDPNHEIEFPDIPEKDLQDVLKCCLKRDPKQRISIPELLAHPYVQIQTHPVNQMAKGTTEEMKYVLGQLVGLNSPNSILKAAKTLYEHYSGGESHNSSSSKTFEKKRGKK

panel of 442 kinases [8] = target: T8, panel of 442 kinases (Homo sapiens, UniProt P31751); details: AKT2; for remaining activity at 1 µM: read-out: % of control at 1 µM
T8 construct: purchased Ambit Biosciences (scanMAXX KINOMEscan)

panel of 442 kinases [9] = target: T9, panel of 442 kinases (Homo sapiens, UniProt Q5S007); details: kinase LRRK2; for remaining activity at 1 µM: read-out: % of control at 1 µM
T9 construct: purchased Ambit Biosciences (scanMAXX KINOMEscan)

panel of 442 kinases [10] = target: T10, panel of 442 kinases (Homo sapiens, UniProt P11802); details: for remaining activity at 1 µM: read-out: % of control at 1 µM; for remaining activity at 10 µM: read-out: % of control at 10 µM
T10 construct: purchased Ambit Biosciences (scanMAXX KINOMEscan)

[11] = 10 µM, read-out: % of control at 10 µM

T1 sequence (Q15746 whole entry): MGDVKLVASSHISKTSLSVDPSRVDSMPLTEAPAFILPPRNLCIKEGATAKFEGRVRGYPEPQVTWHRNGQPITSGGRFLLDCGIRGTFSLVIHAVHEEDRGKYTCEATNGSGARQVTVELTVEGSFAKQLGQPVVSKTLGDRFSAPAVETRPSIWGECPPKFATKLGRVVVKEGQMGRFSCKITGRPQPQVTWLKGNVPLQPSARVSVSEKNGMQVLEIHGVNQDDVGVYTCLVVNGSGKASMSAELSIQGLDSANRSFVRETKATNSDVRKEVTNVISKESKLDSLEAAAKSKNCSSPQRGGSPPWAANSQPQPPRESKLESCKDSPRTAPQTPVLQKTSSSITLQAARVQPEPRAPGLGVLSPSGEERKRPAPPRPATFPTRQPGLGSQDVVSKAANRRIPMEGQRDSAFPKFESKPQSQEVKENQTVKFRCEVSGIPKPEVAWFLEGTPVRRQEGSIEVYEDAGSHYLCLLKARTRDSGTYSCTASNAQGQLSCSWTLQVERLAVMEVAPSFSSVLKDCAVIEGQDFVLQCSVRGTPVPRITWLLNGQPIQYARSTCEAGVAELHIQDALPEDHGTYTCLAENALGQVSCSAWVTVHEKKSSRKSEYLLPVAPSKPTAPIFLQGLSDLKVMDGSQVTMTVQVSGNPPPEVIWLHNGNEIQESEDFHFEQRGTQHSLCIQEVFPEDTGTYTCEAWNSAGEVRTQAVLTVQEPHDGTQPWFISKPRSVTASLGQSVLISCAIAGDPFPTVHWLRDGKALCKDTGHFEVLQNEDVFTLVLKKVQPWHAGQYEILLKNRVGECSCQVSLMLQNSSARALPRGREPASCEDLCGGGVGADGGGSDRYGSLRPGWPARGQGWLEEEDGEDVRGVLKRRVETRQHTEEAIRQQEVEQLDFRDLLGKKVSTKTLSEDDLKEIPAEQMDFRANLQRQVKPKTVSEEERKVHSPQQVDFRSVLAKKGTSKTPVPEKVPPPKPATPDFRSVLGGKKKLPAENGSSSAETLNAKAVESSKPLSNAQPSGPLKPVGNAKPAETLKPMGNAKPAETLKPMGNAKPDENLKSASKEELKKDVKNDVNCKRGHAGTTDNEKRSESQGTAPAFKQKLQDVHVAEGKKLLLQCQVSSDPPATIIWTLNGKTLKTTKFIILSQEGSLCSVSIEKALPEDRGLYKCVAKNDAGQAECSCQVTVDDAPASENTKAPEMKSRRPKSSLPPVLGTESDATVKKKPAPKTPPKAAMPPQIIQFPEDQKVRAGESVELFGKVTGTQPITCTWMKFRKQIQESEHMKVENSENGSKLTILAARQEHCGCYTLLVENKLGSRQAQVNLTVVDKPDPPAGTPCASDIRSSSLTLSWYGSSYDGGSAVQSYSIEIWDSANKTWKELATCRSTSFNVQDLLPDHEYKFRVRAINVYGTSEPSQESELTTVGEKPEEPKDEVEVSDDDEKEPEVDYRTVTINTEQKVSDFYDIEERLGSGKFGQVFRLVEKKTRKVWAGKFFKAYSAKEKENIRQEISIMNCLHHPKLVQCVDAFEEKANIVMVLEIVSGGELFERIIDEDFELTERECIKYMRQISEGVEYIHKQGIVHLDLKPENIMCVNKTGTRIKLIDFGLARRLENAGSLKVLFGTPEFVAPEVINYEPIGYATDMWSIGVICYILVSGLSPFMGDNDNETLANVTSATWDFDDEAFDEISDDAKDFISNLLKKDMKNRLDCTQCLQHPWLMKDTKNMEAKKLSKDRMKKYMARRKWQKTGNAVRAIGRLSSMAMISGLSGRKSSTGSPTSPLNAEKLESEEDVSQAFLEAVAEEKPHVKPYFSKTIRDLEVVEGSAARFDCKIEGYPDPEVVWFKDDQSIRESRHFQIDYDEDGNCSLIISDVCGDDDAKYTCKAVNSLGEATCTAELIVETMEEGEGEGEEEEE
T5 sequence (Q96NX5 whole entry): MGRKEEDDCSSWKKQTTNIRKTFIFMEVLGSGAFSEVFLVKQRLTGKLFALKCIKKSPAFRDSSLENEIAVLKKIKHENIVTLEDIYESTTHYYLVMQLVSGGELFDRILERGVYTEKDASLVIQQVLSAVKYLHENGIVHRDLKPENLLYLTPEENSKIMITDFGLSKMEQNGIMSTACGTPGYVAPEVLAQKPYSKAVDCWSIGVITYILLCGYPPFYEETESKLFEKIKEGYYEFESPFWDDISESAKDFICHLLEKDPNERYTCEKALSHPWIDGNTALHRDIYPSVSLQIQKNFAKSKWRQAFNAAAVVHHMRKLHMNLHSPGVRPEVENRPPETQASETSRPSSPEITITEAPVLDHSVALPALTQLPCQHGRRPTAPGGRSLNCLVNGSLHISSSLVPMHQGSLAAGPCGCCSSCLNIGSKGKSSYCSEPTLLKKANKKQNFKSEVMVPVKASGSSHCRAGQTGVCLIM
T6 sequence (Q8N4C8 whole entry): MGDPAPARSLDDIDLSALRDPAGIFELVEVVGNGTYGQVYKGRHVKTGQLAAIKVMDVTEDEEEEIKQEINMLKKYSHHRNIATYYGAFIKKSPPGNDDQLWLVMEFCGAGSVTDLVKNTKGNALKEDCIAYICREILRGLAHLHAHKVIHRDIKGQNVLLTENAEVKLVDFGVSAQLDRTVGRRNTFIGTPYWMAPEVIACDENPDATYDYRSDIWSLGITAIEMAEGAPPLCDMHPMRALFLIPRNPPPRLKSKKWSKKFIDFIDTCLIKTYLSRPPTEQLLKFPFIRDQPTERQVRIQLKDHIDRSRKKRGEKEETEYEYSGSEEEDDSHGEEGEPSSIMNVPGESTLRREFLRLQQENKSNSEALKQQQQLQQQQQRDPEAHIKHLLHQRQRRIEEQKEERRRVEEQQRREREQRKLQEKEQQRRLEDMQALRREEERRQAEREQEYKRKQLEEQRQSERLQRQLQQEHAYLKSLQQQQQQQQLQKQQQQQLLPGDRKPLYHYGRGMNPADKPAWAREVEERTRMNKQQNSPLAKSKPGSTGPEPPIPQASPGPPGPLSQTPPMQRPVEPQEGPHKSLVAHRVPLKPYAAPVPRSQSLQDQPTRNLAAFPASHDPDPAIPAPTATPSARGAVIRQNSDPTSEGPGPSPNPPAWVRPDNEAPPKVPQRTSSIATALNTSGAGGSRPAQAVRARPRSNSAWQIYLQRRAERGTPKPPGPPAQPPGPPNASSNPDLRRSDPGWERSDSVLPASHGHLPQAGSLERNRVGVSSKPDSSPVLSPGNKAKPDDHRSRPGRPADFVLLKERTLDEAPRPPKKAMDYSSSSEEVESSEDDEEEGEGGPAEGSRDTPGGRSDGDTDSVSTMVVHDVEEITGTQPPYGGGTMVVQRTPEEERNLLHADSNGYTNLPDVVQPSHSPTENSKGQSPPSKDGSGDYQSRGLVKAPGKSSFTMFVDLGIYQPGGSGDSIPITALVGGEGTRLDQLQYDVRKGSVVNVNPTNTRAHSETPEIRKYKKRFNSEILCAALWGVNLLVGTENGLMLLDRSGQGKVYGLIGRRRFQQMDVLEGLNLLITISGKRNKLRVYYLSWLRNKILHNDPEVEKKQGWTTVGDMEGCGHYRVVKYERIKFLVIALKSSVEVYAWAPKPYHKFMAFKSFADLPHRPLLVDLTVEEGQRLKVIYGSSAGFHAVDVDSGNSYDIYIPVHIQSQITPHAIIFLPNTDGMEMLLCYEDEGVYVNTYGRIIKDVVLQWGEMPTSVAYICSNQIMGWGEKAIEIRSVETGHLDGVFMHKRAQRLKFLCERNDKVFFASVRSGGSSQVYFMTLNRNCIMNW
T10 sequence (P11802 whole entry): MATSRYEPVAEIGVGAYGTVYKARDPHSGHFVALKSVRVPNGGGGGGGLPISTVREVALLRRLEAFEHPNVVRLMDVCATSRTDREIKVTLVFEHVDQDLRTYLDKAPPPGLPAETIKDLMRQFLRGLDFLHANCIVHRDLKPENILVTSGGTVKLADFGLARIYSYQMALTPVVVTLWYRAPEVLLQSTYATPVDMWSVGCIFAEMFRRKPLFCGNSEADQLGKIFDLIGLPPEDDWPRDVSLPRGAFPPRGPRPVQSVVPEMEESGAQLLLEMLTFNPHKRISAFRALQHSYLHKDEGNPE
T3 sequence (O75460 19-977): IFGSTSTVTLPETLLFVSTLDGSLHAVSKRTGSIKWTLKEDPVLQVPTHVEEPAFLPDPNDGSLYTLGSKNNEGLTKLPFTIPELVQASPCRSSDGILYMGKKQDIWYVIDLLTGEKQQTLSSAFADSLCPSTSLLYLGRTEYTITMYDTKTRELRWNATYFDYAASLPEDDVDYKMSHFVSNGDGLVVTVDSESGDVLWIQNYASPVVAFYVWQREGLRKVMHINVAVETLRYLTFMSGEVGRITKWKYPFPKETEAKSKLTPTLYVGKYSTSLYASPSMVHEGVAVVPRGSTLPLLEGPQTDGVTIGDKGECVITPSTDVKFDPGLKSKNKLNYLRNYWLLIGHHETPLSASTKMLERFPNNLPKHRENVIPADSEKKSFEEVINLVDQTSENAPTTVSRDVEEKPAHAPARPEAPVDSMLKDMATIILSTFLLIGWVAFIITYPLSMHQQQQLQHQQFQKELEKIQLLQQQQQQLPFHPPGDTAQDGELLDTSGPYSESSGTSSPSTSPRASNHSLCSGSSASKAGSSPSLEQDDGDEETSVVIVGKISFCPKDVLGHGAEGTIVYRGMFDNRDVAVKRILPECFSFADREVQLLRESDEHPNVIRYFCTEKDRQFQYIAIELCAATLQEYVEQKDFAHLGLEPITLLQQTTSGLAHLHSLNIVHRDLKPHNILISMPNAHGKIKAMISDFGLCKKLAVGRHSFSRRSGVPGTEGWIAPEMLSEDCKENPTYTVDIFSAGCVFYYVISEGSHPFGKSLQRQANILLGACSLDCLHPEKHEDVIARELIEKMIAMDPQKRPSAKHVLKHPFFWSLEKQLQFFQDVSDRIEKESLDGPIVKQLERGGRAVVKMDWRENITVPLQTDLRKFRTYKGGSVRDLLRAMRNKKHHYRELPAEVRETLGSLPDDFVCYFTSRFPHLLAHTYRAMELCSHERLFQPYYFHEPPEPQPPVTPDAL

Structure (SMILES) | remaining activity at 1 µM (panel of 442 kinases [1]) | remaining activity at 1 µM (panel of 442 kinases [2]) | remaining activity at 1 µM (panel of 442 kinases [3]) | remaining activity at 1 µM (panel of 442 kinases [4]) | remaining activity at 1 µM (panel of 442 kinases [5]) | remaining activity at 1 µM (panel of 442 kinases [6]) | remaining activity at 1 µM (panel of 442 kinases [7]) | remaining activity at 1 µM (panel of 442 kinases [8]) | remaining activity at 1 µM (panel of 442 kinases [9]) | remaining activity at 1 µM (panel of 442 kinases [10]; CDK4-cyclinD1) | remaining activity at 1 µM (panel of 442 kinases [10]; CDK4-cyclinD3) | other results
Nc1cc(C(F)(F)F)c(-c2cc(N3CCOCC3)nc(N3CCOCC3)n2)cn1 [Buparlisib] | 99% | 100% | 100% | 92% | 100% | 100% | 100% | 100% | 80% | 82% | 91% | remaining activity at 10 µM (panel of 442 kinases [1]; [11]): 92%; remaining activity at 10 µM (panel of 442 kinases [2]; 10 µM, read-out: RIPK1 (% of control at 10 µM)): 100%; remaining activity at 10 µM (panel of 442 kinases [3]; [11]): 100%; remaining activity at 10 µM (panel of 442 kinases [4]; [11]): 100%; remaining activity at 10 µM (panel of 442 kinases [5]; [11]): 100%; remaining activity at 10 µM (panel of 442 kinases [6]; [11]): 100%; remaining activity at 10 µM (panel of 442 kinases [7]; 10 µM, read-out: TTK (% of control at 10 µM)): 85%; remaining activity at 10 µM (panel of 442 kinases [8]; [11]): 100%; remaining activity at 10 µM (panel of 442 kinases [9]; [11]): 100%; remaining activity at 10 µM (panel of 442 kinases [10]; CDK4-cyclinD1): 100%; remaining activity at 10 µM (panel of 442 kinases [10]; CDK4-cyclinD3): 100%
Cn1c(=O)n(-c2ccc(C(C)(C)C#N)cc2)c2c3cc(-c4cnc5ccccc5c4)ccc3ncc21 [Dactolisib, 2-methyl-2-[4-(3-methyl-2-oxo-8-quinolin-3-yl-2,3-dihydroimidazo[4,5-c]quinolin-1-yl)-phenyl] propionitrile] | 100% | 91% | 100% | 68% | 87% | 49% | 49% | 78% | 52% | 100% | 97% | 
COc1ncc(-c2ccc3nccc(-c4ccnnc4)c3c2)cc1NS(=O)(=O)c1ccc(F)cc1F [Omipalisib] | 78% | 78% | 73% | 87% | 100% | 83% | 76% | 69% | 96% | 100% | 100% | 
FC(F)c1nc2ccccc2n1-c1nc(N2CCOCC2)nc(N2CCOCC2)n1 [ZSTK474, 2-(difluoromethyl)-1-[4,6-di(4-morpholinyl)-1,3,5-triazin-2-yl]-1H-benzimidazole] | 100% | 98% | 90% | 89% | 91% | 100% | 100% | 80% | 100% | 90% | 100% | 
